What was measured:
[1] = molecular target: T1, recombinant HIV reverse transcriptase (HIV RTR) (Human immunodeficiency virus type 1 group M subtype B, UniProt P04585); experiment: Reverse Transcriptase Assay (incorporation of tritiated deoxyguanosine monophosphate into acid-precipitable cDNA); assay type: biochemical; details: poly r(C).oligo d(G)12-18 and dGTP at about Km; 37° C., 45 minutes
T1 construct: recombinant HIV reverse transcriptase (HIV RTR)
Procedure: The assay measures the incorporation of tritiated deoxyguanosine monophosphate by recombinant HIV reverse transcriptase (HIV RTR) (or other RT) into acid-precipitable cDNA at the Km values of dGTP and poly r(C).oligo d(G)12-18.
Thirty uL of a reaction mixture containing equal volumes of: 500 mM Tris.HCl (pH 8.2), 300 mM MgCl2, 1200 mM KCl, 10 mM DTT, 400 μg/mL poly r(c).oligo d(G) [prepared by dissolving 1.5 mg (25 U) poly r(C).oligo d(G) in 1.5 ml sterile distilled H2 O and diluting to 400 μg/ml], 0.1 μCi/μl [^3 H] dGTP, 160 μM dGTP, was added to 10 μl sterile distilled H2 O, and 2.5 μl of potential inhibitor. An aliquot of 10 μL of 5 nM purified HIV RTR was added to initiate thereaction. The mixture was incubated at 37° C. for 45 minutes.
After incubation is complete, the tubes were cooled in ice for 5 minutes. Ice-cold 13% TCA containing 10 mM NaPPi (200 μl) are added and the mixture incubated on ice for 30 minutes. The precipitated cDNA is removed by filtration using presoaked glass filters [TCA, NaPPi ]. The precipitate is then washed with 1N HCl, 10 mM NaPPi.
The filter discs are then counted in a scintillation counter.
Under these conditions [dGTP] and poly r(C).oligo d(G)12-18 each are approximately equal to the appropriate Km value. Approximately 5-6,000 cpm of [^3 H] GMP are incorporated into acid-precipitable material. The RT reaction is concentration- and time-dependent. […] The calculated IC50 value for the compounds (Ia) and (Ib) of this incertion are as follows: […]

[2] = Incubation With Human Liver Slices (metabolite formation by HPLC); assay type: in vitro ADME; details: 2.85 μmol compound (II), 1.25 g wet weight liver slices (donor), Williams' Medium E, 37° C., four hours
Procedure: Compound (II) (2.85 μmol) was incubated with liver slices (1.25 g wet weight) from a human donor in 20 ml of Williams' Medium E at 37° C. under an atmosphere of 5% CO2 in air for four hours. The metabolites were extracted into ethyl acetate followed by evaporation of the solvent. The residue was reconstituted in methanol and compared on HPLC with an extract of rat liver slice incubation of compound (II). The HPLC effluents were monitored by a UV-diode array detector, and fractionated for liquid scintillation spectrophotometry.

SMILES	IC50 [1] [nM]	formation of metabolites indicated by HPLC comparisons of UV and radioactivity profiles [2]
Cc1[nH]c(=O)c(NCc2nc3c(Cl)ccc(Cl)c3o2)cc1C(C)O (racemic) [Ia, 3-[(4,7-dichlorobenzoxazol-2-yl)methylamino]-5-(1-hydroxyethyl)-6-methylpyridin-2(1H)-one]	1050	–
CCc1cc(NCc2nc3c(Cl)ccc(Cl)c3o2)c(O)nc1C [Compound II, 3-[(4,7-dichlorobenzoxazol-2-yl)-methyl]amino-5-ethyl-6-methyl-2(1H)-pyridinone]	20	formation of Ia and Ib in the human liver slices incubation
CCc1cc(NCc2nc3c(Cl)ccc(Cl)c3o2)c(=O)[nH]c1CO [Ib, 3-[(4,7-dichlorobenzoxazole-2-yl)methylamino]-5-ethyl-6-hydroxymethylpyridi n-2(1H)-one]	14	–

From patent publication US5200329A, “Method of hydroxylating 3-[(4,7-dichlorobenzoxazol-2-yl)methyl]amino-5-ethyl-6-methyl-2-(1H)-pyr idinone by incubation with liver slices” (Merck & Co., Inc., priority 1992, dated 1993)
